According to patent publication US5128359A, “Benzimidazole and azabenzimidazole derivatives which are thromboxane receptor antagonists, their methods of preparation” (Laboratoires UPSA, priority 1990, dated 1992):

Biological target: T1, TXA2 receptors of human platelets (Homo sapiens, UniProt P21731)
T1 construct: Human platelets incubate in the presence of a single concentration; endogenous in cells; host or cells: human platelets
T1 sequence (P21731 1-343): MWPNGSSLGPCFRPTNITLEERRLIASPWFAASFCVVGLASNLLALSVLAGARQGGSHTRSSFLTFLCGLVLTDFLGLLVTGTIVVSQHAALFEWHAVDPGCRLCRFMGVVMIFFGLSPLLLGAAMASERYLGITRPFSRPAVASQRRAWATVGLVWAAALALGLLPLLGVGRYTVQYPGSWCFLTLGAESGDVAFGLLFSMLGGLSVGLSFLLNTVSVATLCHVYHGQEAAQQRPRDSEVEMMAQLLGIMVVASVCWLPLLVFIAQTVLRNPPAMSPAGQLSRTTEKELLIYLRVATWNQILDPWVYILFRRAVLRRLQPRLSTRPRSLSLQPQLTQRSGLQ
Experiment: displacement of radioligand [^125 I]PTA-OH specifically bound to the TXA2 receptors of human platelets
Type: binding
Conditions: for inhibition at 10 µM / inhibition at 0.1 µM: 0.5 h, 30 minutes at 37° C; for inhibition at 10 µM: 1E-5 M competing agent, read-out: % displacement, Concentration 1E-5 M; for inhibition at 0.1 µM: 1E-7 M competing agent, read-out: % displacement, Concentration 1E-7 M; for Ki: determined according to the formula of CHENG and PRUSOFF, read-out: Ki (inhibition constant)
Experimental: The affinity of the products of the Examples described for thromboxane A2 receptors is evaluated by the technique of displacing a radioligand specifically bound to the TXA2 receptors of human platelets. […] The reaction is completed by the addition of a buffer, followed by rapid filtration through […] filters. […] The results are expressed, for the doses tested, as the percentage displacement of the radioligand specifically bound to the TXA2 receptors of human platelets.

inhibition at 10 µM [%]	inhibition at 0.1 µM [%]	Ki [nM]	Structure (SMILES)
97	2	1180	O=C(O)[C@@H]1CC[C@H]1c1nc2cc(F)ccc2n1Cc1ccc(Cl)cc1 (relative stereo) [Example 90, Trans-2-[1 (4-chlorobenzyl)-5-fluorobenzimidazol-2-yl]cyclobutane-1 carboxylic acid]
100	37		O=C(O)[C@@H]1CCC[C@H]1c1nc2cc(F)ccc2n1Cc1ccc(Cl)cc1 (relative stereo) [Example 153, Trans 2-[1-(4-chlorobenzyl)-5-fluorobenzimidazol-2-yl]cyclopentane-1-carboxylic acid]
96	15		O=C(O)[C@@H]1CC=CC[C@@H]1c1nc2cc(F)ccc2n1Cc1ccc(Cl)cc1 (relative stereo) [Example 161, Cis-5-[1-(4-chlorobenzyl)-5-fluorobenzimidazol-2-yl]cyclohexene-4-carboxylic acid]
95	13		CC(C)(CC(=O)O)Cc1nc2ccccc2n1Cc1ccccc1 [Example 58, 4-(1 Benzylbenzimidazol-2-yl)-3,3-dimethylbutanoic acid]
100	28		O=C(O)CCCCSc1nc2cc(F)ccc2n1Cc1ccc(Cl)cc1 [Example 59, 5-[1-(4-Chlorobenzyl)-5-fluorobenzimidazol-2-yl]mercaptopentanoic acid]
97	37		O=C(O)CCCSc1nc2ccccc2n1Cc1ccc(Cl)cc1 [Example 63, 4-[1-(4-Chlorobenzyl)benzimidazol-2-yl]mercaptobutanoic acid]
97	34		O=C(O)CCCSc1nc2ccccc2n1Cc1ccc(Cl)cc1Cl [Example 64, 4-[1 (2,4-Dichlorobenzyl)benzimidazol-2-yl]mercaptobutanoic acid]
93	8		O=C(O)CCCSc1nc2cc(F)ccc2n1Cc1ccc(Cl)cc1 [Example 65, 4-[1-(4-Chlorobenzyl)-5 fluorobenzimidazol-2-yl]mercaptobutanoic acid]
100	52		Cc1ccc(Cn2c(CC(C)(C)CC(=O)O)nc3ccccc32)cc1 [Example 66, 4-[1-(4-Methylbenzyl)benzimidazol-2-yl]-3,3-dimethylbutanoic acid]
100	66		CC(C)(CC(=O)O)Cc1nc2ccccc2n1Cc1ccc(F)cc1 [Example 67]
100	89	31	COc1ccc(Cn2c(CC(C)(C)CC(=O)O)nc3ccccc32)cc1 [Example 68, 4-[1-(4-Methoxybenzyl)benzimidazol-2-yl]-3,3-dimethybutanoic acid]
96	86	15.8	CC(C)(CC(=O)O)Cc1nc2ccccc2n1Cc1ccc(Br)cc1 [Example 69, 4-[1-(4 Bromobenzyl)benzimidazol-2-yl]-3,3-dimethylbutanoic acid]
100	14		CC(C)(CC(=O)O)Cc1nc2cc(Cl)c(Cl)cc2n1Cc1ccc(Cl)cc1 [Example 70, 4-[1-(4-Chlorobenzyl)-5,6-dichlorobenzimidazol-2-yl]-3,3-dimethylbutanoic acid]
100	49		CC(C)(CC(=O)O)Cc1nc2ccccc2n1Cc1cccc(C(F)(F)F)c1 [Example 71, 4-[1-(3-Trifluoromethylbenzyl)benzimidazol-2-yl]-3,3-dimethylbutanoic acid]
100	71	42.3	O=C(O)CC1(Cc2nc3cc(F)ccc3n2Cc2ccc(Cl)cc2)CCCC1 [Example 72, [10[1-(4-Chlorobenzyl)-5-fluorobenzimidazol-2-yl]-methylcyclopent-1 yl]acetic acid]
98	0	807	O=C(O)CC1(Cc2nc3cc(F)ccc3n2Cc2ccc(Cl)cc2)CCCCC1 [Example 73, [1-[1-(4-Chlorobenzyl)-5-fluorobenzimidazol-2-yl]methylcyclohex-1-yl]aceticacid]
100	94	6.3	CC(C)(CC(=O)O)Cc1nc2cc(F)ccc2n1Cc1ccc(Cl)cc1 [Example 74, 4-[1-(4-Chlorobenzyl)-5-fluorobenzimidazol-2-yl]-3,3-dimethylbutanoic acid]

inhibition at 10 µM [%]	inhibition at 0.1 µM [%]	Ki [nM]	Structure (SMILES)
100	57		CCC(C)(CC(=O)O)Cc1nc2ccccc2n1Cc1ccc(Cl)cc1 (stereo not shown) [Example 75, 4-[1-(4-Chlorobenzyl)benzimidazol-2-yl]-3-methyl-3-ethylbutanoic acid]
99	88	11.4	CC(C)(CC(=O)O)Cc1nc2ccccc2n1Cc1ccc(Br)cc1F [Example 76, 4-[1-(2-Fluoro-4-bromobenzyl)benzimidazol-2-yl]-3,3-dimethylbutanoic acid]
100	85	31	CC(C)(CC(=O)O)Cc1nc2ccccc2n1Cc1ccc(Cl)cc1 [Example 77, 4-[1-(4-Chlorobenzyl)benzimidazol-2-yl]-3,3-dimethylbutanoic acid]
100	44		COc1ccc2c(c1)nc(CC(C)(C)CC(=O)O)n2Cc1ccc(Cl)cc1 [Example 78, 4-[1-(4-Chlorobenzyl)-5-methoxybenzimidazol-2-yl]-3,3-dimethylbutanoic acid]
99	74	23.2	CC(C)(CC(=O)O)Cc1nc2cc(Cl)ccc2n1Cc1ccc(Cl)cc1 [Example 79, 4-[1 (4-Chlorobenzyl)-5-chlorobenzimidazol-2-yl]-3,3-dimethylbutanoic acid]
92	89	6.02	CC(C)(CC(=O)O)Cc1nc2cc(F)ccc2n1Cc1ccc(Cl)c(Cl)c1 [Example 80, 4-[1-(3,4-Dichlorobenzyl)-5-fluorobenzimidazol-2-yl]-3,3-dimethylbutanoic acid]
100	83	60.1	CC(C)(CC(=O)O)Cc1nc2ccccc2n1Cc1ccc([N+](=O)[O-])cc1 [Example 81, 4-[1-(4-Nitrobenzyl)benzimidazol-2-yl]-3,3-dimethylbutanoic acid]
97	35		CCC(CC)(CC(=O)O)Cc1nc2ccccc2n1Cc1ccc(Cl)cc1 [Example 82, 4-[1-(4-Chlorobenzyl)benzimidazol-2-yl]-3,3-diethylbutanoic acid]
100	10		CC(CC(=O)O)Cc1nc2ccccc2n1Cc1ccc(Cl)cc1 (stereo not shown) [Example 83, 4-[1-(4-Chlorobenzyl)benzimidazol-2-yl]-3-methylbutanoic acid]
98	85		CC(C)(CC(=O)O)Cc1nc2ccccc2n1Cc1ccc2ccccc2c1 [Example 84, 4-[1-(Naphth-2-ylmethyl)benzimidazol-2-yl]-3,3-dimethylbutanoic acid]
90	7		CC(C)(CC(N)=O)Cc1nc2ccccc2n1Cc1ccc(Cl)cc1 [Example 85, 4-[1-(4-Chlorobenzyl)benzimidazol-2-yl]-3,3-dimethylbutanamide]
96	50		CC(C)(CC(=O)O)Cc1nc2ccccc2n1Cc1ccc(O)cc1 [Example 87, 4-[1-(4-Hydroxybenzyl)benzimidazol-2-yl]-3,3-dimethylbutanoic acid]
100	97	12.5	CC(C)(CC(=O)O)Cc1nc2cc(Cl)cnc2n1Cc1ccc(Cl)cc1 [Example 92]
100	100	5	CSc1ccc(Cn2c(CC(C)(C)CC(=O)O)nc3cc(F)ccc32)cc1 [Example 96, 4-[1-(4-Methylthiobenzyl)-5-fluorobenzimidazol-2-yl]-3,3-dimethylbutanoic acid]
100	100	37	CC(C)(CC(=O)O)Cc1nc2cc(F)ccc2n1Cc1ccc(S(C)(=O)=O)cc1 [Example 97, 4-[1-(4-Methylsulfonylbenzyl)-5-fluorobenzimidazol-2-yl]-3,3-dimethylbutanoic acid]
92	71		CC(C)(CC(=O)O)Cc1nc2cc(Cl)ccc2n1Cc1ccc(Cl)c(Cl)c1 [Example 101, 4-[1-(3,4-Dichlorobenzyl)-5-chlorobenzimidazol-2-yl]-3,3-dimethylbutanoic acid]
98	100		CC(C)(CC(=O)O)Cc1nc2cc(F)ccc2n1Cc1ccc(Br)cc1F [Example 105, 4-[1-(2-Fluoro-4-bromobenzyl)-5-fluorobenzimidazol-2-yl]-3,3-dimethylbutanoic acid]
